Source: ChEMBL document CHEMBL3507680, “University of Dundee, Gates Library screen for HepG2 cell viability”

Test: Human HepG2 cell viability assay in 384 well format
Assay type: toxicity, cell-based
Design: dose 125 nL, time 70.5 hour; cytotoxicity at 70.5 h: concentration not given beside the values
Conditions: HepG2 cells, read-out: Inhibition

Compound | cytotoxicity at 70.5 h
CN(CC(=O)N1CC(C)(C)[C@@](C)(O)C1)Cc1ccncc1 | -6.29%
CCCn1cc(-c2cc(C(=O)N(C)C)c3ccc(OC)cc3n2)cn1 | -3.58%
CC(C)C1CN(S(C)(=O)=O)CCCN1Cc1ccc(F)cc1 (stereo not drawn) | -3.17%
CC(C)[C@H]1CN(CC2CCC2)C[C@@H]1NC(=O)c1ccc(=O)[nH]c1 | 3.69%
Cc1cc(NCCc2nc(C)c[nH]2)nc(-c2ccccc2O)n1 | -1.72%
CN(C)c1ccc(C(=O)N2CCCN(C3CCCCC3)CC2)cn1 | -7.27%
CN(Cc1ccc(-n2cccn2)cc1)Cc1cnc(N(C)C)nc1 | -8.45%
CC(C)=CCN1CCN(C(=O)c2cc(C(C)C)on2)[C@H]2CS(=O)(=O)C[C@H]21 | -8.01%
O=C1NC2(CCN(Cc3ccccc3Cl)CC2)CC1c1ccccc1 (stereo not drawn) | -9.33%
CCCN1CCC(Cc2noc(-c3ncccc3C)n2)CC1 | -5.81%
OC1(CN2CCCC2)COCCN(c2ncnc3[nH]cnc23)C1 (stereo not drawn) | -0.684%
CC(C)=CCN1CCC(c2nnc(CN3CCN(C)CC3)n2C)CC1 | 35%
O=C1CCOCCN1Cc1ccc(Cl)c(Cl)c1 | 33.5%
Cc1ccccc1OC1CN(Cc2c(C)nc3ccccn23)C1 | 26.8%
O=C(NCC1(O)CCCCC1)c1coc(COc2cccc(F)c2)n1 | 1.09%
Fc1cccc(-c2n[nH]cc2-c2nc(CN3CCOCC3)no2)c1 | 15.5%
CSc1ccc(C(=O)N2C[C@H]3CC[C@@H]2CN(Cc2cccnc2)C3)cc1 | -5.35%
O=C(C1CC(=O)N(C2CC2)C1)N1CCC(Oc2ccccc2Cl)CC1 (stereo not drawn) | 0.0694%
O=C(NCC1CCCN(C(=O)NCCc2ccccc2)C1)c1ccco1 (stereo not drawn) | -0.863%
Cc1nnc(NCCn2nc(C)c(Cl)c2C)o1 | -6.66%
Cc1nnc(SCCNC(=O)CC2CCc3ccccc32)s1 (stereo not drawn) | -4.12%
CCCn1nccc1S(=O)(=O)N1CCC2(CCCN(C(C)C)C2=O)C1 (stereo not drawn) | 17.4%

Compound | cytotoxicity at 70.5 h
COc1cccc(-c2cc(C(=O)NCCCn3cnnc3)[nH]n2)c1 | -11.1%
CCOc1cc(CNCc2nc(C)cc(=O)[nH]2)c(Cl)cc1OC(C)C | -3.61%
O=C1COc2ccccc2N1CCCn1cnnn1 | -9.54%
O=C1CCC2(CCCN(C(=O)c3ncc[nH]3)C2)CN1CCc1c[nH]cn1 (stereo not drawn) | 13.6%
CN1CCC(N(C)CCC(=O)N2CCC(Oc3ccc(Cl)cc3)CC2)C1 (stereo not drawn) | -5.97%
Cn1cc(Cl)c(CN(Cc2ccsc2)CC2CCCO2)n1 (stereo not drawn) | -5.58%
COCCN1CCC(C(=O)N(C)Cc2c[nH]c3ccc(C)cc23)C1 (stereo not drawn) | -8.11%
OC[C@H]1CN(Cc2c(Cl)cncc2Cl)C[C@H]1CN1CCCC1 | -9.31%
CS(=O)(=O)c1ncc(CN2CCN3CCCC3C2)n1CC1CCCCC1 (stereo not drawn) | -6.4%
Cc1cc(NC(=O)CNCc2csc(-c3cnccn3)n2)ccc1Cl | -6.43%
CC(C)c1cc(C(=O)NCC2CCCN(c3ncccn3)C2)n(C)n1 (stereo not drawn) | -5.82%
O=C1NCCCCC1NC(=O)C1(Oc2ccc(Cl)cc2)CCNCC1 (stereo not drawn) | -7.72%
Cc1ccc2nc(C(=O)N3CC(c4cccnc4)C3)cn2c1 | -6.09%
COCCN1C[C@H](NC(=O)CCC(F)(F)F)[C@@H](C(C)C)C1 | -2.58%
NC(=O)c1cn2cc(-c3ccccc3Cl)n(CC3CC3)c(=O)c2n1 | -9.1%
NCCc1nc(N(Cc2cncs2)C2CC2)c2ccccc2n1 | 24.1%
Cc1cc(C)n(CCCC(=O)N2CC[C@H]3NCCC[C@]3(CO)C2)n1 | -2.14%
CC(=O)Nc1ccc2nc(-c3nccn3C[C@@H]3CCCO3)ccc2c1 | -11.8%
COCCN(Cc1sccc1C)C(=O)COc1ccccc1O | -4.7%
CCn1c(Cn2cccn2)nnc1C1CCN(Cc2ccc(C)o2)CC1 | 19.3%
Cc1ccc(C(F)(F)F)cc1C(=O)N[C@H]1CN(CCO)C[C@@H]1C1CC1 | -3.09%
Cc1cc(N(C)CCCn2cccn2)nc(N)n1 | -12.7%

Compound | cytotoxicity at 70.5 h
COc1ccc(F)c(CNC2CCCc3nc(N(C)C)ncc32)c1 (stereo not drawn) | -11.5%
OC1(CNCc2noc(Cc3ccccc3)n2)CNCCOC1 (stereo not drawn) | -4.33%
CCN(CC)C(=O)N1CCN(Cc2cnc(C)nc2)[C@H]2CS(=O)(=O)C[C@H]21 | -17.5%
CCN(Cc1nc(COC)no1)Cc1cc2ccc(F)cc2[nH]c1=O | -12.1%
CCC(C)Oc1ccc(CNCCNC(C)=O)cc1OC (stereo not drawn) | -6.94%
CCc1nccn1CC(=O)N1C[C@H]2CC[C@@H]1CN(c1ncccn1)C2 | -0.942%
CN1CC(c2ccccc2)CC12CCN(C(=O)c1cccnc1)CC2 (stereo not drawn) | -9.06%
Cc1oc(C(C)C)cc1C(=O)N1C[C@H]2CC[C@@H]1CN(c1ncccn1)C2 | -13.7%
COc1ccc(S(=O)(=O)N[C@H]2CN(C(C)=O)C[C@@H]2C(C)C)cc1F | -12.5%
CCCc1cc(C(=O)N[C@@H](CO)[C@@H](O)c2ccccc2)n(C)n1 | 0.909%
CCc1cn[nH]c1C1CCN(c2cc(C)c3ccc(OC)cc3n2)CC1 | 9.99%
CCc1nc(C)sc1CN(Cc1ccncc1)C1CCN(C)CC1 | -6.03%
CC1(C)CC(CN2CCC3(CCC(=O)N(CCO)C3)CC2)CCO1 (stereo not drawn) | -10.6%
Cc1ccc(C(=O)N2CCC3(CCC(=O)N(CC(C)O)C3)CC2)c(O)c1 (stereo not drawn) | -7.72%
CC(C)Cn1cncc1-c1nc2c([nH]1)CCCNC2=O | -6.28%
N[C@H]1CC[C@@H](CN2CCCn3nc(CNC(=O)C4CCC4)cc3C2)CC1 | -9.19%
CC(C)C(O)C1CCN(c2ccnc(C(=O)NCc3ccco3)c2)CC1 (stereo not drawn) | -14.1%
CC(=O)N1CCCC(C(=O)NCc2noc(Cc3ccccc3)n2)C1 (stereo not drawn) | -11.1%
CC(C)Cc1cc(C(=O)N2CCC(C(=O)N3CCOCC3)CC2)on1 | -7.8%
Cc1cccc(CNC2CC(=O)N(CCc3cccc(Cl)c3)C2)n1 (stereo not drawn) | -8.39%
COc1cnc(N2C[C@H](CO)C[C@H](CN3CCOCC3)C2)nc1 | -2.01%
CN(C)CCCNC(=O)C(c1cccc(F)c1)N(C)C (stereo not drawn) | -2.43%

Compound | cytotoxicity at 70.5 h
c1ccc(CN2CCC(NCCSc3cnn[nH]3)CC2)cc1 | 2.48%
COCCN(Cc1ccccc1Cl)C(=O)c1c(C)cc(C)[nH]c1=O | -2.7%
COCc1noc(CCNc2ncnc3c2CCNCC3)n1 | -8.6%
COCCC1(C(=O)O)CCCN(C(=O)c2cc(C)oc2C)C1 (stereo not drawn) | -15.5%
O=C(NCc1sc2ccccc2c1Cl)c1cc2n(n1)CCNC2 | 18.3%
O=C(c1ccc2c(c1)OCO2)N1CCCC(Nc2ccc(F)cc2)C1 (stereo not drawn) | -2.98%
Cn1ncc2c(NCC3CCS(=O)(=O)C3)nc(C3CCCC3)nc21 (stereo not drawn) | -3.73%
Cc1n[nH]c(SCC(=O)N2C[C@H]3CC[C@@H]2CN(c2ncccn2)C3)n1 | -4.86%
O=C1CC(c2ncc(-c3ccc4c(c3)OCCO4)[nH]2)CN1C1CC1 (stereo not drawn) | -7.8%
OC1CCCN(Cc2cn(CC3CCN(C4CCSCC4)CC3)nn2)C1 (stereo not drawn) | -2.84%
CS(=O)(=O)N1C[C@H]2CNC[C@@]2(C(=O)NCCOc2ccccc2)C1 | -1.07%
Cc1nnc(NC(=O)N2CCCN(C3CCCC3)CC2)s1 | -2.92%
CCSc1ncc(CN2CCN(c3nc(C)cnc3C)CC2)cn1 | 23.3%
NC(=O)CN1CC2(CCC1=O)CCN(C(=O)c1ccccc1F)CC2 | 33.9%
CCOC(=O)c1cccc(N2CCCC3(CCC(=O)N(C4CC4)C3)C2)n1 (stereo not drawn) | -2.93%
CCc1c(C)nc(N)nc1N1CCCC(c2nc(CCOC)no2)C1 (stereo not drawn) | 4.51%
COCc1noc(Cn2ncn3cccc3c2=O)n1 | 6.69%
Cc1n[nH]c(C)c1-c1cc(-c2cccc(O)c2)nc(N)c1C#N | -8.76%
CCCc1cnc(C)nc1N1CCC(Cc2ccc(CO)cc2)C1 (stereo not drawn) | -10.5%
CC(=O)N[C@@H](CC(C)C)C(=O)N1CCC(n2cc(C(C)(C)N)nn2)CC1 | -2.68%
COc1ccc(C(=O)C2CCCN(Cc3cc(C)n[nH]3)C2)c(OC)c1 (stereo not drawn) | -5.48%
CC1CN(Cc2ccccc2Cn2cccn2)CCN1C (stereo not drawn) | -0.364%

Compound | cytotoxicity at 70.5 h
O=C1O[C@@H]2CN(Cc3ccsc3)C[C@@H]2N1Cc1ccccn1 | 2.38%
COc1ccccc1-n1nc(-c2ccco2)n(CC(=O)NC(C)C)c1=O | -6.38%
CC(C)=CCN1C[C@@H]2CN(C(=O)c3ccc(CO)cc3)C[C@]2(C(=O)O)C1 | -12.2%
O=C(O)CCc1cc2n(n1)CCN(Cc1cnc(N3CCCC3)nc1)C2 | -2.38%
Cc1cc(C)nc(NCc2nnc3n2CCCCC3)n1 | 13.9%
Cc1nn(C)c2nc(NC(C)c3nnn[nH]3)sc12 (stereo not drawn) | 11.9%
COc1cc(F)ccc1-c1nc2c([nH]1)c(C1CC1)nn2C | -10.9%
CC1CCN(CC(=O)N(C)CCc2noc(C3CC3)n2)C1=O (stereo not drawn) | -5.01%
CNC(=O)[C@@H]1C[C@H](N)CN1Cc1cc2cc(C)cc(C)c2[nH]c1=O | -13.7%
Cc1cnn(CC2CCN(c3cc(C(C)C)nc4ccnn34)CC2)c1 | -0.486%
CC(Cc1ccc2c(c1)OCO2)c1cn(CCc2c[nH]cn2)nn1 (stereo not drawn) | -6.47%
COCCN1CCCC2(CCN(c3nc(C)nc4c3CCC4)C2)C1=O (stereo not drawn) | -4.89%
CC(C)CC(=O)N1CCc2ccc(S(=O)(=O)N3CCN(C)CC3)cc2C1 | -8.6%
CCN1CCN(C(=O)c2[nH]c3ccccc3c2Cl)[C@H]2CS(=O)(=O)C[C@H]21 | -2.45%
O=C1O[C@@H]2CN(Cc3ccccn3)C[C@@H]2N1CCCc1ccc(F)cc1 | 6.23%
Cc1cc(NCc2cc(C)oc2C(F)(F)F)n2nc(C)cc2n1 | -2.81%
CCOCCn1nc(C)cc1C(=O)N1C[C@@H](C)[C@](O)(C2CC2)C1 | -2.07%
CCOCC(C)(C)NC(=O)Nc1cc(F)ccc1OC | -5.66%
CC(=O)NCCn1ccnc1-c1cccc(C(C)N(C)C)c1 (stereo not drawn) | 5.57%
O=C(c1ccc2sccc2c1)N1CCC(C(=O)O)(n2ccnc2)CC1 | 3.47%
